Results as given in patent EP2292624A1, “Process for the purification of olanzapine” (LEK Pharmaceuticals d.d., priority 2009, dated 2011).
Where a name gives a salt, the structure may show the parent alone.

Settings: water; printed as 'approximately up to about'

In the case of `Cc1cc2c(s1)Nc1ccccc1N=C2N1CCN(C)CC1` [oxalic acid addition salt of olanzapine], the aqueous solubility is reported as “up to 800 mg/mL”.
